Measurements: US7901681B2, “Trypanosome derived apoptotic factors (TAF)” (priority 2003, dated 2011)

Experiments:
HBVEC = assay: TUNEL assay, dose response of apoptosis in HBVEC; assay type: cell-based, human
Procedure: RBVEC Cell line: Human Brain Macrovascular Endothelial Cells (HBVEC) were obtained from Biowhittaker (Walkersville, Md.). They were grown in media made as per the instructions in the Complete Medium Kit (Cell Systems Corporation, Kirkland, Wash.). Briefly, 500 ml of Complete Medium was added to 10 ml of Attachment Factor (Cell Systems Corporation, Kirkland, Wash.). The medium is a liquid medium containing 10% serum and CSC Growth factor. Cell stocks were maintained in T25 flasks at 37° C. in a 5% CO2 incubator, and were harvested and passed at about 60-80% confluence. Experiments were performed on cells plated and grown for 24 to 48 hours on collagen-coated coverslips in 35 mm tissue culture dishes.
Terminal deoxynucleotidyl transferase dUTP nick-end labeling (TUNEL) assay. […] Cells on cover slips were washed with PBS, and fixed for 30 minutes at RT with 4% paraformaldehyde, in PBS, pH 7.4. […] Total cell counts were determined by counterstaining fixed cultures with 20:g/ml of Hoechst 33258. […]
Dose Response. The effect of Trypanosome conditioned serum containing medium-induced apoptosis was determined in HBVEC. […] Total cells, and fluorescent cells were counted for each field examined (10 fields per plate minimum). The percentage of TUNEL-labeled cells was calculated as the number of FITC-stained cells divided by the total number.of cells. […]

mouse cerebellum = assay: Mouse cerebellum apoptosis analysis (TUNEL of brain sections); assay type: in vivo, Balb/c mice; details: similar to that induced by T. brucei
Procedure: Murine African trypanosomiasis model. All animal-related procedures were carried out in strict accordance with the National Institutes of Health Guide for the Care and Use of Laboratory Animals and approved by the Morehouse School of Medicine's Animal Care and Use Committee. Male Balb/c mice (6-8 weeks of age) were maintained on a 12-hour-light/12-hour-dark cycle with access to food and water ad libitum. Mice were injected intra-peritoneally with parasitized blood (T. brucei L427) and groups of 10 were then sacrificed on days 0, 4, 6 and 8 post-infection (P.I.). Equal numbers of mice were sham-injected (with uninfected blood) as controls. All experiments were repeated twice at different times to ensure that the data were representative of each group, and took into account the potential individual-host variation in trypanosome-induced global gene expression. This murine trypanosomiasis model mimics the major clinical symptoms of HAT, with the infected mice developing fever, tremors, lethargy, weight loss, dyskinesia, convulsions, altered gait, and death by day 10 post injection (P.I.).
Mouse cerebellum and apoptosis analysis. […] The level of apoptosis visible in brain sections was determined semi-quantitatively as the mean numbers of TUNEL-positive (i.e. apoptotic) cells/cm^2 in 20 comparative fields of brain sections from infected and uninfected mice.

Question: Which “induction of apoptosis in HBVEC” value (HBVEC) does the source give for “AEGPEDKGLTKGGKGKGEKETKVQDEV (listed as Trypanosoma brucei) [ProEP2-1]” here?
Answer: The value was “induce apoptosis”.

Question: What about the “dose dependence of TUNEL labeling of HBVEC” value (HBVEC; 24 hours) of the same sequence?
Answer: Its value is “dose dependent”.

Question: And the “induction of apoptosis in cerebella of mice” value (mouse cerebellum)?
Answer: The value was “induce apoptosis”.
